According to paper PMC6934184, “Selective DNA-PKcs inhibition extends the therapeutic index of localized radiotherapy and chemotherapy” (The Journal of Clinical Investigation, 2019):

Target: T1, AXL (Homo sapiens, UniProt P30530)
T1 construct: purchased Thermo Fisher Scientific (Life Technologies) SelectScreen
Test: SelectScreen Z'LYTE
Format: biochemical
Method in brief: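 Percent values come from Thermo SelectScreen profiling of NU5455, combining activity and binding assays. CSF1R was run in Z'LYTE format at Km app ATP, and CAMK1 in Adapta format with ATP listed at 10.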

T1 sequence (P30530 26-894): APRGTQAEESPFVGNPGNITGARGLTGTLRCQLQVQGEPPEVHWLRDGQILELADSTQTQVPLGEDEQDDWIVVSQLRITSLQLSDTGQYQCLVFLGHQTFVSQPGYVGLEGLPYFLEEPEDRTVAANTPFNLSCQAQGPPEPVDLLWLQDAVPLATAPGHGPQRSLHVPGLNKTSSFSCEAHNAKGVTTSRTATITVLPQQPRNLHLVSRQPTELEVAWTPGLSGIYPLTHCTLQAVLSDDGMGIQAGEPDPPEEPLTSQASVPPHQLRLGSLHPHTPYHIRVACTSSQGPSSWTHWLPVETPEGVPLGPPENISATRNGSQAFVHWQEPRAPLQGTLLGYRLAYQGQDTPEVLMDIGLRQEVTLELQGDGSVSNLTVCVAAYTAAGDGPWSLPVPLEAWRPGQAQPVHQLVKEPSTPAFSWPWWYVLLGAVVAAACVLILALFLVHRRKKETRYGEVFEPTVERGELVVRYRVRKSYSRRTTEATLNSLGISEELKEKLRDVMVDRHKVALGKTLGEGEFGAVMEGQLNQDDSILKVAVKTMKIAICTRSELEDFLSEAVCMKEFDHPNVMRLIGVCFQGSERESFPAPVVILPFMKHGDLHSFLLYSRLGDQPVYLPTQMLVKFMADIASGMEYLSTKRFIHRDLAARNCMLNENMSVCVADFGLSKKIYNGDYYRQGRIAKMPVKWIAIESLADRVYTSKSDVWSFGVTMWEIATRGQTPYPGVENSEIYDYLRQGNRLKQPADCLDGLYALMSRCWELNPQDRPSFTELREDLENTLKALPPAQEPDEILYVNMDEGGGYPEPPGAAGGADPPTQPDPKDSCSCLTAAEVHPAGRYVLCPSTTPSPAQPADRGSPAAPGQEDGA

Q: For `CN(C(=O)CN1CCOCC1)c1ccc2sc3c(-c4cccc5c(=O)cc(N6CC7CCC(C6)O7)oc45)cccc3c2c1` [NU5455], which inhibition at 1 µM is on record?
A: -4.2%
